IC50 data for two compounds are collected here from ChEMBL document CHEMBL4359912, “Novel N-Substituted oseltamivir derivatives as potent influenza neuraminidase inhibitors: Design, synthesis, biological evaluation, ADME prediction and molecular docking studies” (Eur J Med Chem, 2019).

pIC50: −log10 of the molar value.

For this test, the target named is Neuraminidase (Influenza A virus (A/Memphis/1/1971(H3N2)), UniProt P03471). Briefly: Inhibition of influenza A virus H3N2 clinical isolate neuraminidase using NA-Fluor MUNANA as substrate preincubated for 20 to 30 mins followed by substrate addition and measured for 60 mins by fluorescence assay.
Sequence of Neuraminidase (Influenza A virus (A/Memphis/1/1971(H3N2)), UniProt P03471) (P03471 whole entry): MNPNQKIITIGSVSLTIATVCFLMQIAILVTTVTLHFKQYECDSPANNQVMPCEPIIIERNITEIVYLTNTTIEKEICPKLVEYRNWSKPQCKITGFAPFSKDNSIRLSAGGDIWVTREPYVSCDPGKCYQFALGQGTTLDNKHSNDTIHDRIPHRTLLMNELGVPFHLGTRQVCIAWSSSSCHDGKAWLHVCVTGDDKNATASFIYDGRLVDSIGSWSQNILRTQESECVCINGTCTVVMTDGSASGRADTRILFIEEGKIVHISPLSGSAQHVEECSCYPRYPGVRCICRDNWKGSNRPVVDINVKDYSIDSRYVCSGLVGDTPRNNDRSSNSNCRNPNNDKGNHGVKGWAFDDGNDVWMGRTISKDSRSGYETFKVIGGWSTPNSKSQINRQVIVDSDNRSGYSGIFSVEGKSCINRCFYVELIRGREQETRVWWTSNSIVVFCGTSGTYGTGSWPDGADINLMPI

Turning to `CCC(CC)O[C@@H]1C=C(C(=O)O)C[C@H](NCc2noc(-c3ccco3)n2)[C@H]1NC(C)=O`, the pIC50 – broadly, the IC50 on a negative log10 scale, so that one unit is a factor of ten – is 8.72.
In the case of `CCC(CC)O[C@@H]1C=C(C(=O)O)C[C@H](NCc2ccc(-c3c(C)noc3C)o2)[C@H]1NC(C)=O`, the pIC50 is 8.79.
